In patent US7732435B2, “Chromone derivatives useful as antagonists of VR1 receptors” (Novartis AG, priority 2005, dated 2010):
Like-named read-outs stand apart in the source and are kept apart here.

Biological target: TRPV1 receptor (UniProt Q8NER1)
Test: Calcium mobilisation assay in CHO-K1 cells expressing the TRPV1 receptor (inhibition of capsaicin or low pH activation)
Format: cell-based, human, rat or guinea pig
Conditions: species not specified
Method: Chinese Hamster Ovary-K1 (CHO-K1) cells, transfected to express either the human, rat or guinea pig TRPV1 receptor, were grown in Minimal Essential Media (MEM) alpha medium without nucleosides supplemented with fetal calf serum (10%), 2 mM L-glutamine, 100 IU/mL penicillin, 100 μg/ml streptomycin and 350-700 μg/ml geneticin. All reagents were supplied by Invitrogen. Cells were grown in T-175 flasks or Costar black, clear-bottomed 96-well view plates and maintained at 37° C. in a 90% humidified incubator with an atmosphere of 5% CO2 and 95% air. The cells were passaged twice a week at a ratio of 1:10 to 1:20 to maintain steady growth. For experimentation, cells were harvested at approximately 80% confluency and plated onto view plates at 40,000 cells per well in 100 μL media and grown overnight.
Calcium Mobilisation Assay […]

CC(C)c1oc2c(ccc3[nH]c(C(C)(F)F)nc32)c(=O)c1-c1ccc(Cl)cc1 [Example 8, 7-(4-Chlorophenyl)-2-(1,1-difluoroethyl)-8-isopropyl-3H-chromeno[7,8-d]imidazol-6-one]
IC50 (TRPV1 stimulated by capsaicin at EC80 concentration, read-out: IC50 (capsacin)): 68 nM | IC50 (TRPV1 stimulated by low pH, final pH 5.5, read-out: IC50 (pH 5.5)): 54 nM
